Laboratory results as given in patent publication US11124506B2, “Salts and crystal forms of diaza-benzofluoranthrene compounds” (HARBIN PHARMACEUTICAL GROUP CO., LTD. GENERAL …, priority 2016, dated 2021).

Target: T1, PDE1A (Homo sapiens, UniProt P54750)
T1 construct: purchased SignalChem
Test: In vitro detection of phosphodiesterase (PDE), fluorescence polarization detection of AMP/GMP production
Format: biochemical
Conditions: human enzyme (SignalChem), cAMP or cGMP substrate, Ca2+-calmodulin cofactor; read-out: IC50 values measured by PDE1 detection: PDE1
Experimental: Experimental Example 1: The In Vitro Detection of Phosphodiesterase (PDE)
Principle of the Experiment:
The assay measures PDE1A enzyme activity based on fluorescence polarization detection of AMP/GMP production. The principle of the reaction is to replace the binding of AMP/GMP to its antibody by AlexaFluor 633 labeled AMP/GMP.
Reaction buffer: 10 mM Tris-HCl, pH=7.5, 5 mM magnesium chloride, 0.01% Brij 35, 1 mM DTT, and 1% DMSO;
Enzyme substrate: […] cAMP or cGMP (Ca^2+-calmodulin as a cofactor of PDE1A);
Transcreener® AMP2/GMP2 antibody;
AMP2/GMP2 AlexaFluor 633 marker.
Experimental Procedures and Methods:
1. Human enzyme to be tested (purchased from SignalChem) and the substrate were diluted with a freshly prepared reaction buffer.
2. An enzyme solution (concentration: 3 pM) was added to the wells of a reaction plate.
3. […]
7. The following devices were used for detection: EnVision (PerkinElmer), Cy5FP Ex FP 620, Em S-pol 688/P-pol 688, FP mirror D658fp/D688; fluorescence polarization was detected using Ex/Em 620/688.
Enzymatic activity corresponding to the FP signal was retrieved in an AMP/GMP standard curve using DMSO as a control in an Excel table. […] An analysis was performed using GraphPad Prism and IC50 values were calculated.

In the case of `CC[C@@]12C=C(c3nc(C)no3)n3c4c(c5ccccc53)CCN(CCC1)[C@H]42` [Compound 1], the IC50 is reported as 1 to 20 µM.
